The source made the active and inactive calls.
Legend:
Cytochrome P450 2D6 = Cytochrome P450 2D6 (Homo sapiens, UniProt P10635);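 also: CYP2D6 member of a cytochrome P450 panel assay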
[1] = molecular target: T1, Microphthalmia-associated transcription factor (Homo sapiens, UniProt O75030); experiment: TRPM1 promoter luciferase signal decrease, dose response, MITF inhibitor project, cell-based, SK-MEL-5, cherry-picked, set 3 (AID 493073); type: functional
T1 sequence (O75030 whole entry): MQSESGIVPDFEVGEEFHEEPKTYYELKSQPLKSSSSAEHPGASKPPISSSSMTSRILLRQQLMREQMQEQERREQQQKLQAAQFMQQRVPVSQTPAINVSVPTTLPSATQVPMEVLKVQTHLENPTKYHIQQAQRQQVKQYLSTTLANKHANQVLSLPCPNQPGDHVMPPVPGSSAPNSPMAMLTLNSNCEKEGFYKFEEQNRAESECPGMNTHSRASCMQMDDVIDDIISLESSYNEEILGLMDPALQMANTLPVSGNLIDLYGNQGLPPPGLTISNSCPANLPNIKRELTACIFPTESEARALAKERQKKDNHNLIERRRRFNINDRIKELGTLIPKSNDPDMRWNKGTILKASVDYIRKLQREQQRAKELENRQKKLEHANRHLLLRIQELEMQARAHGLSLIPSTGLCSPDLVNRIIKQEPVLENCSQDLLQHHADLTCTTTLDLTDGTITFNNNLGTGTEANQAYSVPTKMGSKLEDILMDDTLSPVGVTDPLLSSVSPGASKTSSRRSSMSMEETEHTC

HEK293 [2] = experiment: cells; type: functional, cell-based; details: Homo sapiens
HEK293 [3] = experiment: NOD1 signaling inhibitors, primary screen, cell-based, luminescence, uHTS (AID 1578); type: functional; details: Homo sapiens
[4] = Shn3 3'UTR reporter inhibitors, dose response, cell-based, Clone20 osteoblasts, firefly luciferase, cherry-picked (AID 624132); type: functional;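 also: firefly luciferase luminescence from reporter carrying the Shn3 3'UTR in osteoblasts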
[5] = HepG2 cell cytotoxicity, dose response, cytotoxicity control for Shn3 inhibitor project, CellTiter-Glo, cherry-picked (AID 624134); type: functional, cell-based
HEK293 [6] = experiment: cells; type: functional, cell-based; details: Homo sapiens; remark: listed apart in the source
[7] = control 3'UTR Renilla luciferase suppression, dose response, counter-screen for Shn3 inhibitor project, cell-based, Clone20-Shn3RL, cherry-picked (AID 624133); type: functional
HEK293 [8] = experiment: NOD2 signaling inhibitors in MDP-stimulated cells, cell-based, uHTS, luminescence (AID 2001); type: functional; details: Homo sapiens
[9] = molecular target: T2, Ubiquitin-conjugating enzyme E2 N (Homo sapiens, UniProt P61088); type: functional
T2 sequence (P61088 whole entry): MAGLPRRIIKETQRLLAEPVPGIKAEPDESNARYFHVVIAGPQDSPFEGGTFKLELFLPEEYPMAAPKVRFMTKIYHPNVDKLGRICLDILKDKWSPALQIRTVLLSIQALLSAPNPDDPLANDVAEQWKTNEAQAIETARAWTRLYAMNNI

[10] = molecular target: T2, Ubiquitin-conjugating enzyme E2 N; type: functional; remark: listed apart in the source
Bcl-2-related protein A1 = molecular target: T3, Bcl-2-related protein A1 (Mus musculus, UniProt Q07440); type: functional;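 also: confirmatory dose–response counterscreen on Bfl-1, used to check hits from a UBC13 polyubiquitin inhibitor campaign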
T3 sequence (Q07440 whole entry): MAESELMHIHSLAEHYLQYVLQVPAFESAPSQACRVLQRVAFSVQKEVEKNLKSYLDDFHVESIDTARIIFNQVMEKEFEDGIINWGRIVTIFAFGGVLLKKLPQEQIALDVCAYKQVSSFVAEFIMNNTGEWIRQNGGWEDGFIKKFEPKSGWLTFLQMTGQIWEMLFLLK

[11] = molecular target: Glucose-6-phosphate 1-dehydrogenase (Homo sapiens, UniProt P11413); experiment: human G6PD enzyme inhibitors, dose response, selectivity assay for P. falciparum G6PD inhibitor project, biochemical, fluorescence (AID 504792); type: functional
Chain of Glucose-6-phosphate 1-dehydrogenase (P11413 whole entry): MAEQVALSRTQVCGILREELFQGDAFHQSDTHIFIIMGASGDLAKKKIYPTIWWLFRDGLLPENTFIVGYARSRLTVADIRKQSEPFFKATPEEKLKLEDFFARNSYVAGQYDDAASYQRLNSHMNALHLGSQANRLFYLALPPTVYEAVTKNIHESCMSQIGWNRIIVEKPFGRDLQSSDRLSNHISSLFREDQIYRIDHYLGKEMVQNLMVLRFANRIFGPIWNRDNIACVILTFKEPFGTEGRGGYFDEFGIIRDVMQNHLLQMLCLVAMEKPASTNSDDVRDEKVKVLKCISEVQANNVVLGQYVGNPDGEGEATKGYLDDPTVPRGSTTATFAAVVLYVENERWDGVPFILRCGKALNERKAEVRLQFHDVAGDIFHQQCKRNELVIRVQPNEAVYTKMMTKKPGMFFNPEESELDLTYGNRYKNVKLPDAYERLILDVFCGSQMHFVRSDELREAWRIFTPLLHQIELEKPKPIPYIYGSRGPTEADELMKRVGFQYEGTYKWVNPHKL

Chain of Cytochrome P450 2D6 (P10635 whole entry): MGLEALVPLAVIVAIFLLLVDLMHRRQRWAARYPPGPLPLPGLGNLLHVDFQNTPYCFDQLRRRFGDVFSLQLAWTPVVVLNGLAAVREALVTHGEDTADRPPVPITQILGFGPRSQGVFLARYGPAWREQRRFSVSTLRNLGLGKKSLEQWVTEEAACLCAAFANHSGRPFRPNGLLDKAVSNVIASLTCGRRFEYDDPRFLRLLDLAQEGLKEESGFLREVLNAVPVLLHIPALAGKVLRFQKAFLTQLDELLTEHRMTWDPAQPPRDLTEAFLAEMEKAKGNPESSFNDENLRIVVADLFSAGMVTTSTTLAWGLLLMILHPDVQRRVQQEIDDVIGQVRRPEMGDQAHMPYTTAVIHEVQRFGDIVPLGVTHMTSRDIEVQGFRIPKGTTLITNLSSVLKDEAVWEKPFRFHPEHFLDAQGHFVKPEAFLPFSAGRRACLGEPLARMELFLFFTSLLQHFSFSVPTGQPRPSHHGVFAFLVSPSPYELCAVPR

For `OCCN(CO)CO`, the AC50 (Cytochrome P450 2D6) was “inconclusive”.
For `N#C/C(=C(/O)CCl)c1nc2ccccc2[nH]1`, the AC50 [1] was 4.6 µM (active).
With `NS(=O)(=O)c1cc2c(cc1Cl)N=C(CCC(=O)O)N=S2(=O)O` the AC50 (Cytochrome P450 2D6) was “inconclusive”.
For `Cn1cc(S(=O)(=O)N2CCc3ccccc32)cc1C(=O)NC(C)(C)C`, the IC50 (HEK293 [2]) was > 20 µM (inactive), the EC50 (HEK293 [3]) was 3.38 µM (active) and the AC50 [4] was 1.25 µM (active). The AC50 [5] was 3.56 µM (active), the IC50 (HEK293 [6]) was 10.6 µM (active) and the AC50 [7] was 1.37 µM (active). The IC50 (HEK293 [8]) was 12.3 µM (inactive).
For `NNC(=O)c1ccc(CN2C(=O)c3cccc4cccc2c34)cc1`, the IC50 [9] was 3.55 µM (active), the IC50 [10] was 8.94 µM (active) and the IC50 (Bcl-2-related protein A1) was > 20 µM (inactive).
With `CCn1nc(C)c(NC(=O)/C=C/c2cnn(C)c2C)c1C` the AC50 (Cytochrome P450 2D6) was “inconclusive”.
For `Cc1ccsc1/C=N\NC(=O)CC(=O)NCc1ccccc1`, the IC50 [11] was > 80 µM (inactive).
For `COc1ccc(/C=N/NC(=O)Cc2csc(Nc3cccc(C(F)(F)F)c3)n2)c(OC)c1`, the IC50 [9] was 10.1 µM (active), the IC50 [10] was 14 µM (active) and the IC50 (Bcl-2-related protein A1) was > 20 µM (inactive).
